For this assay, the target named is T1, δ-opiate receptor (Rattus norvegicus, UniProt P33533).
T1 construct: from tissue; host or cells: rat brain (male Wistar) without cerebellum and medulla oblongata, membrane homogenate
The assay can be described thus: δ-Opiate receptor binding ([3H]-2-D-Ala-deltorphin II displacement, rat brain membrane homogenate). Set-up: species or system rat (male Wistar). Particulars: 1 nmole/l [3H]-2-D-Ala-deltorphin II, 90 minutes at 37° C., pH 7.4, mean ± standard deviation of three independent tests, Ki from IC50 by Cheng-Prussoff. The protocol:
δ-Opiate receptor binding investigations
Tests to determine the affinity of the compounds of formula I according to the invention for δ-opiate receptors were performed on meninx homogenates (homogenates of rat's brain, without the cerebellum and medulla oblongata, taken from male Wistar rats).
For this purpose, freshly prepared rat brains were each homogenised, while being cooled in ice, in 50 mmoles/l Tris-HCl (pH 7.4) and were centrifuged for 10 minutes at 5000 g and […]. After decantation and after rejecting the supernatant liquor, followed by renewed take-up and homogenization of the membrane sediment in 50 mmoles/l Tris-HCl (pH 7.4), the homogenate was subsequently centrifuged for 20 minutes at 20,000 g and […]. This washing step was repeated again. Thereafter, the supernatant liquor was decanted and the membrane sediment was homogenized in cold 50 mmoles/l Tris-HCl, 20% glycerol (w/v), 0.01% bacitracin (w/v) (pH 7.4) and aliquots thereof were frozen until required for testing. For the receptor binding tests, the aliquots were thawed and were diluted 1:10 with the binding test buffer. A solution of […] MgCl2 (pH 7.4), supplemented by 0.1 (w/v) bovine serum albumin, was used as the buffer in the binding tests; 1 nmole/l [^3 H]-2-D-Ala-deltorphin II was used as the radioactive ligand. The proportion of non-specific binding was determined in the presence of 10 μmoles/l naloxon.
In further batches, the compounds according to the invention were added in a series of concentrations and the displacement of the radioactive ligand from its specific binding site was determined. The batches concerned, which were each tested in triplicate, were incubated for 90 minutes at 37° C. and were subsequently harvested in order to determine the radioactive ligand which was bound to the membrane homogenate by filtration through a glass fibre filter (GF/B). The glass fiber filter discs were dried, and the radioactivity thereof was measured in a β-counter after adding a scintillator.
The affinity of the compounds according to the invention for the δ-opiate receptor was calculated as the IC50 value according to the law of mass action, by means of nonlinear regression. Ki values were calculated from the IC50 values using the Cheng-Prussoff equation. The Ki values in Table 1 are given as the mean value±standard deviation of three tests which were independent of each other.

Where a name gives a salt, the structure may show the parent alone.

The Ki is the equilibrium dissociation constant of an inhibitor or competing ligand from its target. A lower Ki goes with higher affinity.

T1 sequence (P33533 whole entry): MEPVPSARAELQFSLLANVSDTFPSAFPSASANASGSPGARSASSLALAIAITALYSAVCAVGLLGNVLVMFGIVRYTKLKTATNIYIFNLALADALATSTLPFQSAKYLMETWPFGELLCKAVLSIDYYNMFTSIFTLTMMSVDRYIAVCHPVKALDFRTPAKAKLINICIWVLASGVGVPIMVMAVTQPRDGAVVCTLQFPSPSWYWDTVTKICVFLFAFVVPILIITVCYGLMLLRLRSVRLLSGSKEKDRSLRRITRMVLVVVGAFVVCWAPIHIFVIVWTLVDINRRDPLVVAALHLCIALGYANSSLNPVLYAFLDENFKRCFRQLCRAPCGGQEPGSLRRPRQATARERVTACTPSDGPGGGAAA

The compound `COc1cccc([C@@H]2c3cc4ccccc4nc3CC[C@H]2CN(C)C)c1` (racemic) [rac-trans-[1-(3-methoxy-phenyl)-1,2,3,4-tetrahydro-acridin-2-yl-methyl]-dimethylamine hydrochloride] registered a Ki of 0.127 µM.
As for `CN(C)C[C@H]1CCc2nc3ccccc3cc2[C@@H]1c1cccc(O)c1` (relative stereo) [rac-trans-[3-(2-dimethylaminomethyl-1,2,3,4-tetrahydro-acridin-1-yl)]-phenol hydrochloride], the figure is 0.00417 µM; as for `CN(C)CC1=C(c2cccc(O)c2)c2cc3ccccc3nc2CC1(C)C` [3-(2-dimethylaminomethyl-3,3-dimethyl-3,4-dihydro-acridin-1-yl)-phenol hydrochloride], 0.029 µM.
Compound `COc1cccc(C2=C(CN(C)C)CCc3nc4ccccc4cc32)c1` [[1-(3-methoxy-phenyl)-3,4-dihydro-acridin-2-yl-methyl]-dimethylamine hydrochloride] showed a Ki of 0.133 µM.
Turning to `CN(C)CC1=C(c2cccc(O)c2)c2cc3ccccc3nc2CC1` [[3-(2-dimethylaminomethyl-3,4-dihydro-acridin-1-yl)]-phenol hydrochloride], the affinity, expressed as Ki, was 0.00384 µM.

Values taken from US6077845A, “Acridin derivatives” (Gruenenthal GmbH, priority 1998, dated 2000).
